According to US10780174B2, “Lipid-linked prodrugs” (The University of British Columbia, priority 2015, dated 2020):

What was measured:
OVCAR3 cells = test: In vitro growth inhibition by LD-DTX prodrugs, cell viability assay; format: cell-based; settings: for IC50: Homo sapiens, OVCAR-3, 48 h, Ovcar3 cells
Experimental: OVCAR3 cells were obtained from ATCC (Manassas, Va.). Cells were seeded at 12,000 cells per well on 96-well plates and treated with free docetaxel, prodrugs, lipid nanoparticle formulations with or without prodrugs at 0 to 15 μM of docetaxel for 48 h. Cell viability was determined by a colorimetric assay, based on the tetrazolium salt MIT (3-(4,5-dimethylthiazol-2-yl)-2,5-diphenyltetrazolium bromide), as described previously [Mossman 1983].

[1] = Prodrug incorporation (entrapment) in lipid nanoparticles, UHPLC; format: physicochemical
Experimental: (§1) Preparation of LNP Systems: PC-Chol LNP systems were prepared by rapidly mixing POPC, cholesterol, lipid-linked prodrug and PEG-DMPE (in molar ratio of 49/39/10/2) dissolved in ethanol with phosphate-buffered saline using a T-junction mixer. Formulations were dialyzed against phosphate-buffered saline to remove residual ethanol and to raise the pH to 7.4. PC-TO and ionizable LNP systems were prepared in the same way except that the lipid compositions for these systems are: POPC, triolein, lipid-linked prodrug and PEG-DSPE (in molar ration of 19/70/10/1), and ionizable lipid, DSPC, cholesterol, lipid-linked prodrug and PEG-DMPE (in molar ration of 40/10/38.5/10/1.5), respectively.
(§2) Quantitation of prodrugs by HPLC: LD-DEX/DTX were quantified by ultra high-pressure liquid chromatography (UHPLC) using a Waters Acquity™ UPLC system equipped with a photodiode array detector (PDA) and evaporative light scattering (ELS) detector; Empower™ data acquisition software version 3.0 was used (Waters™, USA). Separations were performed using a Waters Acquity™ BEH C18 column (1.7 μm, 2.1×100 mm) at a flow rate of 0.5 ml/min, with mobile phases A and B consisting of methanol/10 mM ammonium bicarbonate (80/20% v/v) and methanol/acetonitrile (80/20% v/v), respectively. The mobile phases were delivered at a programmed linear gradient (45%-80% B in 1 min then to 99% B at 2 min) at a column temperature of 55° C. The analyte was measured by PDA (at a wavelength of 239 nm) and ELS detector against calibration standard curves. For the analysis of LD-DEX/DTX breakdown to active compound, linear gradients of 20/80% to 100/0% (acetonitrile/water, v/v) over 7 min were used.

[2] = In vitro degradation of lipid-linked prodrugs in LNP, mouse plasma; format: in vitro ADME; settings: LNP; for prodrug cleavage/degradation after 1 h in plasma: 37° C., mouse plasma
Experimental: as §2
To determine the biodegradability of the dexamethasone or docetaxel prodrugs (LD-DEX/DTX), 1 mg/mL LNP was incubated in mouse plasma (Cedarlane™, Burlington, Ontario) or PBS supplemented with 10 U of purified esterase (Sigma-Aldrich™, St. […] Post incubation, four volumes of chloroform/methanol (2:1) was added and the mixture was vortex mixed. Samples were centrifuged at 13,000 g for 5 minutes and the upper phase was discarded. The remaining organic phase was dried down under vacuum and the resulting lipid extract was dissolved in methanol/acetonitrile (1:1). Quantity of parent LD-DEX/DTX compound was determined by ultra high pressure liquid chromatography on a Waters Acquity™ H-Class UPLC System™ equipped with a BEH C18 column and a photodiode array detector.

[3] = Particle size and polydispersity of LNP containing prodrug (dynamic light scattering); format: physicochemical; settings: PDI in brackets
Experimental: as §1
Characterization of LNP: Particle size was determined by dynamic light scattering using a Malvern Zetasizer Nano ZS™ (Malvern, UK) following buffer exchange into phosphate-buffered saline. Number-weighted size and distribution data was used. Lipid concentrations were determined by measuring total cholesterol using the Cholesterol E enzymatic assay kit from Wako Chemicals USA™ (Richmond, Va.). The morphology of LNP formulations containing LD-DEX was analyzed by cryogenic-transmission electron microscopy (cryoTEM) as described previously [Leung et al. (2012)].

[4] = test system: immunostimulatory effects of LNP-CpG (plasma cytokines); test: In vivo immune suppression by LD-DEX prodrugs, LNP-CpG model; design: species or system C57Bl/6 mice; settings: mice, i.v., 10 mg/kg of CpG, 2 h post injection
Experimental: 6-8 Weeks old female C57Bl/6 mice (Charles River Laboratories™, Wilmington, Mass.) were injected intravenously with lipid nanoparticles containing CpG DNA oligonucleotides (10 mg/kg), mRNA (3 mg/kg) or plasmid DNA (pDNA) (1 mg/kg). Animals were euthanized 2 hours post-injection and blood was collected via intracardiac or saphenous sampling. Plasma was separated from whole blood by centrifugation and analyzed for proinflammatory cytokines using the Mesoscale Proinflammatory Multiplex™ kit (Rockville, Md.) according to manufacturer's instruction. All procedures were approved by the Animal Care Committee at the University of British Columbia and were performed in accordance with guidelines established by the Canadian Council on Animal Care.

[5] = test system: IL1β expression in RAW 264.7 mouse macrophage cells; test: In vitro immune suppression, LPS-treated RAW 264.7 cells, IL1β qRT-PCR; format: cell-based; settings: 2 ng/mL LPS, 4 h
Experimental: RAW 264.7 mouse macrophage cells were seeded at 250,000 cells per mL on 12-well plates and incubated at 37° C. overnight. Lipopolysaccharide (LPS) was dissolved in phosphate buffered saline at a concentration of 2 μg/ml. Cells were treated with lipid nanoparticles containing LD-DEX prodrugs and 2 ng/ml of LPS for 4 hours. This LPS concentration was chosen due to its ability to increase IL1β expression approximately 1000 times as compared to untreated cells. At the end of the incubation period, culture medium was aspirated and cellular RNA was extracted using the Purelink RNA™ extraction kit according to manufacturer's protocol (Life Technologies™, Burlington, ON). The concentration of extracted RNA was determined using a Nanodrop Lite™ (Thermo Fisher™). 1 μg of RNA was converted to cDNA using the High Capacity cDNA Reverse Transcription kit (Life Technologies™, Burlington, ON). In order to validate the sample preparation, a no template control and a negative reverse transcriptase control were included. The cDNA was then quantified using comparative real-time qPCR where the Ct (threshold cycle) values are converted to relative quantity using the 2-ΔΔCT method. The primer-probe sets were designed to bind to cDNA of Interleukin-1β(IL1β). Hypoxanthine-guanine phosphoribosyltransferase (HPRT) was chosen as the endogenous normalizer gene, which is known to maintain consistent levels with varying treatments.

[6] = test system: purified porcine esterase; test: In vitro degradation of lipid-linked prodrugs in LNP, purified esterase in PBS; settings: LNP, 24 h incubation
[7] = LD-DEX prodrug in ionizable LNP
[8] = LD-DTX prodrug in ionizable LNP

Compound	suppression of cancer cell proliferation / IC50 comparison (in words) (OVCAR3 cells; OVCAR3, 0 to 15 μM of docetaxel, 48 h)	% Entrapment PC-Chol LNP ([1]; LD-DEX prodrug in PC-Chol LNP) [%]	% Entrapment [ionizable LNP] [1, 7]	input amount incorporated into the final lipid nanoparticle preparation ([1]; of the input amount)	prodrug cleavage/degradation after 1 h in plasma [2]	Particle size (PDI) PC-Chol LNP ([3]; LD-DEX prodrug in PC-Chol LNP)	Particle size (PDI) [ionizable LNP] [3, 7]	plasma TNFα and KC/GRO levels versus control LNP-CpG [4]	IL1β expression versus control LNP without prodrug [5]	% Entrapment PC-Chol LNP ([1]; LD-DTX prodrug in PC-Chol LNP) [%]	% Entrapment [ionizable LNP] [1, 8]	IC50 (OVCAR3 cells; Free drugs) [µM]	IC50 (OVCAR3 cells; PC-Chol LNP) [µM]	IC50 (OVCAR3 cells; PC-TO LNP) [µM]	IC50 (OVCAR3 cells; ionizable LNP) [µM]	Particle size (PDI) PC-Chol LNP ([3]; LD-DTX prodrug in PC-Chol LNP)	Particle size (PDI) [ionizable LNP] [3, 8]	release of active drug (UPLC chromatogram) in mouse plasma ([2]; 24 h incubation)	release of active drug (UPLC chromatogram) in purified esterase [6]
CC(=O)O[C@@]12CO[C@@H]1C[C@H](O)[C@@]1(C)C(=O)[C@H](O)C3=C(C)[C@@H](OC(=O)[C@H](O)[C@@H](NC(=O)OC(C)(C)C)c4ccccc4)C[C@@](O)([C@@H](OC(=O)c4ccccc4)[C@H]21)C3(C)C [Docetaxel, reference compound]	much lower than all the other test articles	–	–	–	–	–	–	–	–	–	–	–	–	–	–	–	–	–	–
CCCCC/C=C\C/C=C\CCCCCCCC(=O)OC(COC(=O)CCC(=O)OCC(=O)[C@@]1(O)[C@H](C)C[C@H]2[C@@H]3CCC4=CC(=O)C=C[C@]4(C)[C@@]3(F)[C@@H](O)C[C@@]21C)CN(C)C (some centres unmarked) [LD01-DEX]	–	72	[65] %	65-72 mol %	significant cleavage	77 (0.06) nm	[51 (0.04)] nm	marked reduction in cytokine levels	–	–	–	–	–	–	–	–	–	–	–
CCCCC/C=C\C/C=C\CCCCCCCCOCCCCSCC(=O)[C@@]1(O)[C@H](C)C[C@H]2[C@@H]3CCC4=CC(=O)C=C[C@]4(C)[C@@]3(F)[C@@H](O)C[C@@]21C [LD07-DEX, (8S,9R,10S,11S,13S,14S,16R,17R)-9-fluoro-11,17-dihydroxy-10,13,16-trimethyl-17-(2-((4-(linoleyloxy)butyl)thio)acetyl)-6,7,8,9,10,11,12,13,14,15,16,17-dodecahydro-3H-cyclopenta[a]phenanthren-3-one]	–	90	[88] %	–	no degradation	56 (0.03) nm	[47 (0.04)] nm	did not exhibit any immunosuppressive effects	IL1β expression at a similar level to control	–	–	–	–	–	–	–	–	–	–
CCCCC/C=C\C/C=C\CCCCCCCC(=O)OCC(COC(=O)CCC(=O)O[C@@H](C(=O)O[C@H]1C[C@@]2(O)[C@@H](OC(=O)c3ccccc3)[C@@H]3[C@]4(OC(C)=O)CO[C@@H]4C[C@H](O)[C@@]3(C)C(=O)[C@H](O)C(=C1C)C2(C)C)[C@@H](NC(=O)OC(C)(C)C)c1ccccc1)OC(=O)CCCCCCC/C=C\C/C=C\CCCCC (stereo partly drawn) [LD10-DTX, (2R,3S)-1-(((2aR,4S,4aS,6R,9S,11S,12S,12aR,12bS)-12b-acetoxy-12-(benzoyloxy)-4,6,11-trihydroxy-4a,8,13,13-tetramethyl-5-oxo-2a,3,4,4a,5,6,9,10,11,12,12a,12b-dodecahydro-1H-7,11-methanocyclodeca[3,4]benzo[1,2-b]oxet-9-yl)oxy)-3-((tert-butoxycarbonyl)amino)-1-oxo-3-phenylpropan-2-yl (2,3-bis((9Z,12Z)-octadeca-9,12-dienoyloxy)propyl) succinate]	–	–	–	–	largely not degraded	–	–	–	–	95	[100] %	0.156	0.374	0.791	0.133	58 (0.06) nm	[42 (0.06)] nm	–	–
CCCCCCCCCCCCCC(=O)OCC(COC(=O)CCC(=O)O[C@@H](C(=O)O[C@H]1C[C@@]2(O)[C@@H](OC(=O)c3ccccc3)[C@@H]3[C@]4(OC(C)=O)CO[C@@H]4C[C@H](O)[C@@]3(C)C(=O)[C@H](O)C(=C1C)C2(C)C)[C@@H](NC(=O)OC(C)(C)C)c1ccccc1)OC(=O)CCCCCCCCCCCCC (stereo partly drawn) [LD22-DTX, (2R,3S)-1-(((2aR,4S,4aS,6R,9S,11S,12S,12aR,12bS)-12b-acetoxy-12-(benzoyloxy)-4,6,11-trihydroxy-4a,8,13,13-tetramethyl-5-oxo-2a,3,4,4a,5,6,9,10,11,12,12a,12b-dodecahydro-1H-7,11-methanocyclodeca[3,4]benzo[1,2-b]oxet-9-yl)oxy)-3-((tert-butoxycarbonyl)amino)-1-oxo-3-phenylpropan-2-yl (2,3-bis(tetradecanoyloxy)propyl) succinate]	–	–	–	–	largely not degraded	–	–	–	–	93	[100] %	0.0517	~1.55	0.315	0.093	65 (0.04) nm	[39 (0.07)] nm	active docetaxel (DTX) was observed	active docetaxel (DTX) was observed
CCCCCCCC/C=C\CCCCCCCC(=O)OCC(COC(=O)CCC(=O)O[C@@H](C(=O)O[C@H]1C[C@@]2(O)[C@@H](OC(=O)c3ccccc3)[C@@H]3[C@]4(OC(C)=O)CO[C@@H]4C[C@H](O)[C@@]3(C)C(=O)[C@H](O)C(=C1C)C2(C)C)[C@@H](NC(=O)OC(C)(C)C)c1ccccc1)OC(=O)CCCCCCC/C=C\CCCCCCCC (stereo partly drawn) [LD23-DTX, (2R,3S)-1-(((2aR,4S,4aS,6R,9S,11S,12S,12aR,12bS)-12b-acetoxy-12-(benzoyloxy)-4,6,11-trihydroxy-4a,8,13,13-tetramethyl-5-oxo-2a,3,4,4a,5,6,9,10,11,12,12a,12b-dodecahydro-1H-7,11-methanocydodeca[3,4]benzo[1,2-b]oxet-9-yl)oxy)-3-((tert-butoxycarbonyl)amino)-1-oxo-3-phenylpropan-2-yl (2,3-bis(oleoyloxy)propyl) succinate]	–	–	–	–	largely not degraded	–	–	–	–	100	[100] %	0.0645	~15.6	0.692	0.0999	60 (0.05) nm	[39 (0.06)] nm	–	–
